According to ChEMBL document CHEMBL3271954, “Antitumor agents. 25. Synthesis and antitumor activity of uracil and thymine alpha-methylene-gamma-lactones and related derivatives” (1977):
The source made the active and inactive calls. No cut-off for these calls is given here.

Experiments:
Type in all cases: functional
Conditions in all cases: for T/C: route intraperitoneal
P388 = test: Antitumor activity against mouse P388 cells allografted in DBA/2 mouse at 25 mg/kg/day, ip administered for 2 weeks relative to control
B16 = test: Antitumor activity against mouse B16 cells allografted in C57Bl/6 mouse at 25 mg/kg/day, ip administered for 2 weeks relative to control
W256 = test: Antitumor activity against rat Walker 256 cells allografted in Sprague-Dawley rat at 2.5 mg/kg/day, ip relative to control

Compound	T/C (P388)	T/C (B16)	T/C (W256)	Activity (P388)	Activity (B16)	Activity (W256)
C=C1C(=O)O[C@H]2/C=C(/C)[C@H](CO)C/C=C(\C)C[C@@H](OC(=O)/C(=C/CO)CO)[C@@H]12 [EUPAFORMOSANIN]	147%	113%	471%	–	–	–
C=C1CC(C)(Cn2ccc(=O)[nH]c2=O)OC1=O (configuration not stated)	115%	111%	131%	–	–	–
C=C1C(=O)O[C@H]2[C@H]1[C@H](OC(=O)/C(C)=C/CO)C/C(C)=C/CC[C@@]1(CO)O[C@H]21	147%	111%	330%	–	–	–
N[C@@H](Cc1ccc(N(CCCl)CCCl)cc1)C(=O)O [MELPHALAN]	–	–	317%	–	–	–
Cc1c[nH]c(=O)[nH]c1=O	–	–	–	inactive	inactive	inactive
C=C1CC(C)(Cn2cc(COC(=O)c3cc(OC)c(OC)c(OC)c3)c(=O)[nH]c2=O)OC1=O (configuration not stated)	142%	129%	209%	–	–	–
O=c1cc[nH]c(=O)[nH]1	–	–	–	inactive	inactive	inactive
C=C1CC(C)(Cn2cc(C)c(=O)[nH]c2=O)OC1=O (configuration not stated)	127%	123%	127%	–	–	–
O=c1[nH]cc(F)c(=O)[nH]1 [FLUOROURACIL]	186%	164%	–	–	–	–
C=C1CC(C)(Cn2cc(COC(=O)/C=C/c3ccccc3)c(=O)[nH]c2=O)OC1=O (configuration not stated)	130%	141%	211%	–	–	–
